Measurements as given in patent EP4610257A1, “CRYSTAL FORM OF ISOQUINOLINONE COMPOUND AND PREPARATION METHOD THEREFOR” (Jiangsu Hengrui Pharmaceuticals Co., Ltd., priority 2022, dated 2024).

What was measured:
[1] = biological target: PDE3A (Homo sapiens, UniProt Q14432); test: In vitro PDE3A enzyme activity assay, IMAP FP-based
[2] = biological target: PDE4B1 (Homo sapiens, UniProt Q07343); test: In vitro PDE4B enzyme activity assay, IMAP FP-based; settings: for inhibition at 2 µM: read-out: Inhibition rate (%) PDE4B1(2000 nM)
[3] = in vivo; design: species or system ICR mice; settings: both sexes, ICR, mouse, inhaled or intranasal
Description: Test Example 3: PK Assay by Intratracheal Administration
Time points for plasma collection were: 0.25 h, 0.5 h, 1 h, 2 h, 4 h, 8 h, 12 h, and 24 h. […] Time points for lung tissue collection were: 0.5 h, 2 h, 8 h, and 24 h.
30.0 µL of plasma sample was added to a 1.5 mL centrifuge tube, and 150 µL of an internal standard working solution was added. […] 70.0 µL of the supernatant was added to a 96-well plate, and 70.0 µL of deionized water was added. The resulting mixture was well shaken, and 2.00 µL of the mixture was taken for LC-MS/MS analysis.
An appropriate amount of the lung tissue sample was accurately weighed out and placed into a homogenate tube, and acetonitrile was added at a volume equivalent to 5 times the weight of the sample. The mixture was homogenized and ultrasonicated for 5 min. 20.0 µL of the lung tissue homogenate sample was taken, and 30.0 µL of an internal standard working solution and 200 µL of acetonitrile were added. […] 100 µL of the supernatant was added to a 96-well plate, and 100 µL of deionized water was added.

PDE4B1, sequence (Q07343 whole entry): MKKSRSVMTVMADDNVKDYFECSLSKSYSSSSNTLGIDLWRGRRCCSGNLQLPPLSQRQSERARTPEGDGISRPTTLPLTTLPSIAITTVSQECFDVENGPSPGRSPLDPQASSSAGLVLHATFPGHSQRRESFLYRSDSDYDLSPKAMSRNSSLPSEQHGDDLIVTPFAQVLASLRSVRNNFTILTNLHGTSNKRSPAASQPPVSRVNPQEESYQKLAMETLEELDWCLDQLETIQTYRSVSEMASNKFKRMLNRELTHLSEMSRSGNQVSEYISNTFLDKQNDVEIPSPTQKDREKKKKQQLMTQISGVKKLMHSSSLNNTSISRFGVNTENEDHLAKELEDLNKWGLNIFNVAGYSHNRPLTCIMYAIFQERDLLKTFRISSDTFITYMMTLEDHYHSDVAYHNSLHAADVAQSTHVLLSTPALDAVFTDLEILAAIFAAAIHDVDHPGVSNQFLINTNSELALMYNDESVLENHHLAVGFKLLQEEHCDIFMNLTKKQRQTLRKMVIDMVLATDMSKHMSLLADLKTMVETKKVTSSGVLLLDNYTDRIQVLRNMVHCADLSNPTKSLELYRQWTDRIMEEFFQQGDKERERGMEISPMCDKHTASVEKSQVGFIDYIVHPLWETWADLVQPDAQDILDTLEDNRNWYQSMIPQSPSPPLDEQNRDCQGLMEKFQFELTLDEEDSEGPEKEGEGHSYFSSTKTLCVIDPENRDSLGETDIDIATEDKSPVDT
PDE3A, sequence (Q14432 669-1141 limits assumed): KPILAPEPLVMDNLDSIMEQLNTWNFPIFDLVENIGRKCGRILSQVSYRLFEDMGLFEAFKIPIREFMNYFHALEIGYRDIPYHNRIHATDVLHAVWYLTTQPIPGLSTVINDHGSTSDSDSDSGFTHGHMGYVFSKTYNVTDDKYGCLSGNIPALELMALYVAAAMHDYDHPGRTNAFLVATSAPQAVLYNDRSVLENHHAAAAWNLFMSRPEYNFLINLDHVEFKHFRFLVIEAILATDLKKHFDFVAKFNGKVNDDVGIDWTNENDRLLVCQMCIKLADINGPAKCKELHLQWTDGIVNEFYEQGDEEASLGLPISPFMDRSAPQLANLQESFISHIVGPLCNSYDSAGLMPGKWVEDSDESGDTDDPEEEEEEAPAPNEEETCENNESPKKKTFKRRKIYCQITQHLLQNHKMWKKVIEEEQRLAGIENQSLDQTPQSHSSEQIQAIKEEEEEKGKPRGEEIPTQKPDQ

Row | SMILES | IC50 [1] [nM] | inhibition at 0.5 µM ([1]; read-out: Inhibition rate (%) PDE3A (500 nM)) [%] | IC50 [2] [nM] | inhibition at 2 µM [2] [%] | half-life [3] [min] | Tmax ([3]; Plasma Tmax (h)) [min]
1 | COc1cc2c(cc1OC)-c1cc(=Nc3c(C)cc(C)cc3C)n(CCNC(N)=O)c(=O)n1CC2 [RPL554, 9,10-dimethoxy-2-(2,4,6-trimethylphenylimino)-3-(N-carbamoyl-2-aminoethyl)-3,4,6,7-tetrahydro-2H-pyrimido[6,1-a]isoquinolin-4-one] | 0.25 | 99.2 | 110 | 64.2 | 52.8 | 15
2 | CCOc1cc2c(cc1OC)-c1cc(=Nc3c(C)cc(C)cc3C)n(CCN3CCOC3=O)c(=O)n1CC2 [WX001] |  |  | 876 | 66.3 |  | 
